Assays:
WT HIV-1 (IIIB) = experiment: microbe, parasite or virus in culture; type: cell-based; details: for EC50: Human immunodeficiency virus 1, IIIB, MT4, read-out: EC50 IIIB; for SI IIIB: ratio of CC50/EC50
HIV-2 strain (ROD) = experiment: Anti-HIV-2; type: cell-based; details: for EC50: Human immunodeficiency virus 2, MT4, read-out: EC50 ROD; for SI ROD: ratio of CC50/EC50
[1] = system: HIV-1 L100I mutant strain; experiment: microbe, parasite or virus in culture; type: cell-based; details: for SI L100I: CC50/EC50; for EC50: Human immunodeficiency virus 1, MT4, read-out: EC50 L100I; for RF L100I: ratio of EC50 (resistant viral strain)/EC50 (wild-type viral strain)
[2] = system: HIV-1 K103N mutant strain; experiment: microbe, parasite or virus in culture; type: cell-based; details: for SI K103N: CC50/EC50; for EC50: Human immunodeficiency virus 1, MT4, read-out: EC50 K103N; for RF K103N: ratio of EC50 (resistant viral strain)/EC50 (wild-type viral strain)
[3] = system: HIV-1 Y181C mutant strain; experiment: microbe, parasite or virus in culture; type: cell-based; details: for SI Y181C: CC50/EC50; for EC50: Human immunodeficiency virus 1, MT4, read-out: EC50 Y181C; for RF Y181C: ratio of EC50 (resistant viral strain)/EC50 (wild-type viral strain)
[4] = system: HIV-1 Y188L mutant strain; experiment: microbe, parasite or virus in culture; type: cell-based; details: for SI Y188L: CC50/EC50; for EC50: Human immunodeficiency virus 1, MT4, read-out: EC50 Y188L; for RF Y188L: ratio of EC50 (resistant viral strain)/EC50 (wild-type viral strain)
[5] = system: HIV-1 E138K mutant strain; experiment: microbe, parasite or virus in culture; type: cell-based; details: for SI E138K: CC50/EC50; for EC50: Human immunodeficiency virus 1, MT4, read-out: EC50 E138K; for RF E138K: ratio of EC50 (resistant viral strain)/EC50 (wild-type viral strain)
[6] = system: HIV-1 F227L + V106A double-mutant strain; experiment: microbe, parasite or virus in culture; type: cell-based; details: for SI F227L + V106A: CC50/EC50; for EC50: Human immunodeficiency virus 1, MT4, read-out: EC50 F227L + V106A; for RF F227L + V106A: ratio of EC50 (resistant viral strain)/EC50 (wild-type viral strain)
[7] = system: HIV-1 RES056 (K103N + Y181C) double-mutant strain; experiment: microbe, parasite or virus in culture; type: cell-based; details: for SI RES056: CC50/EC50; for EC50: Human immunodeficiency virus 1, MT4, read-out: EC50 RES056; for RF RES056: ratio of EC50 (resistant viral strain)/EC50 (wild-type viral strain)
WT HIV-1 RT = WT HIV-1 RT (Human immunodeficiency virus type 1 group M subtype B, UniProt P03366); experiment: Recombinant HIV-1 RT inhibitory assay; type: biochemical
[8] = Cytotoxicity in mock-infected MT-4 cell cultures, MTT method; details: human, mock-infected MT-4 cells

Row | Structure (SMILES) | EC50 (WT HIV-1 (IIIB)) | SI IIIB (WT HIV-1 (IIIB)) | EC50 (HIV-2 strain (ROD)) | SI ROD (HIV-2 strain (ROD)) | SI L100I [1] | EC50 [1] | RF L100I [1] | SI K103N [2] | EC50 [2] | RF K103N [2] | SI Y181C [3] | EC50 [3] | RF Y181C [3] | SI Y188L [4] | EC50 [4] | RF Y188L [4] | SI E138K [5] | EC50 [5] | RF E138K [5] | SI F227L + V106A [6] | also measured
1 | Cc1cc(-c2ccc(N(C)C)cc2)cc(C)c1Oc1nc(NC2CCN(Cc3ccc(C(N)=O)cc3)CC2)nc2ccsc12 [Compound 30, 4-((4-((4-((4'-(Dimethylamino)-3,5-dimethyl-[1,1′-biphenyl]-4-yl)oxy)thieno[3,2-d]pyrimidin-2-yl)amino)piperidin-1-yl)methyl)benzamide] | 176 ± 26.4 nM | 134 | > 23500 nM | <1 | 21 | 1120 ± 543 nM | 6.3 | 135 | 173 ± 46.3 nM | 1.0 | 40 | 585 ± 33.3 nM | 3.3 | 42 | 556 ± 57.4 nM | 3.2 | 96 | 245 ± 173 nM | 1.4 | 19 | EC50 [6]: 1250 ± 804 nM; RF F227L + V106A [6]: 7.1; SI RES056 [7]: < 1; EC50 [7]: > 23500 nM; RF RES056 [7]: > 133; IC50 (WT HIV-1 RT): 473 ± 59 nM; CC50 at 5 days [8]: 23500 ± 380 nM
2 | Cc1cc(-c2cccc(N(C)C)c2)cc(C)c1Oc1nc(NC2CCN(Cc3ccc(S(N)(=O)=O)cc3)CC2)nc2ccsc12 [Compound 31, 4-((4-((4-((3'-(Dimethylamino)-3,5-dimethyl-[1,1′-biphenyl]-4-yl)oxy)thieno[3,2-d]pyrimidin-2-yl)amino)piperidin-1-yl)methyl)benzenesulfonamide] | 882 ± 323 nM | 125 | > 110000 nM | <1 | 46 | 2400 ± 256 nM | 2.7 | 161 | 685 ± 0.21 nM | 0.8 | 48 | 2300 ± 413 nM | 2.6 | 55 | 1990 ± 46.5 nM | 2.3 | 112 | 979 ± 185 nM | 1.1 | 51 | EC50 [6]: 2160 ± 298 nM; RF F227L + V106A [6]: 2.4; SI RES056 [7]: 4; EC50 [7]: 29600 nM; RF RES056 [7]: 33.5; IC50 (WT HIV-1 RT): 1680 ± 56 nM; CC50 at 5 days [8]: 110000 ± 1460 nM
3 | Cc1cc(-c2cccc(N(C)C)c2)cc(C)c1Oc1nc(NC2CCN(Cc3ccc(C(N)=O)cc3)CC2)nc2ccsc12 [Compound 32, 4-((4-((4-((3'-(Dimethylamino)-3,5-dimethyl-[1,1′-biphenyl]-4-yl)oxy)thieno[3,2-d]pyrimidin-2-yl)amino)piperidin-1-yl)methyl)benzamide] | 163 ± 57.8 nM | 121 | 4660 ± 824 nM | 4 | 17 | 1140 ± 99.2 nM | 6.9 | 93 | 212 ± 7.34 nM | 1.3 | 32 | 626 ± 39.2 nM | 3.8 | 36 | 552 ± 45.6 nM | 3.4 | 100 | 198 ± 34.2 nM | 1.2 | 25 | EC50 [6]: 783 ± 196 nM; RF F227L + V106A [6]: 4.8; SI RES056 [7]: 5; EC50 [7]: 4300 ± 1540 nM; RF RES056 [7]: 26.2; IC50 (WT HIV-1 RT): 271 ± 16 nM; CC50 at 5 days [8]: 19800 ± 4470 nM
